PubChem BioAssay AID844 (SRMLSC, 2007)
Calls of active or inactive are those of the source. No rule for the calls is given here.

Tested on: MRP1 cells, doxorubicin viability shift, 10 uM compound
Assay: doxorubicin EC50 increase in MRP-1 cells, dose response, cell-based, doxorubicin EC50 shift (AID 844)
Conditions: for EC50: measured here: doxorubicin EC50 with compound

SMILES | fold increase in Dox EC50 | EC50 [µM]
CC(/C=C1\SC(=S)N(NC(=O)c2ccc(O)cc2)C1=O)=C\c1ccccc1 | 0.83 (inactive) | 4.46
CC12CCC(c3nnc(SCc4ccc(Cl)cc4)nc31)C2(C)C (stereo not given) | 1.32 (inactive) | 7.1
COc1ccc(/C=N/Nc2cc(C)nc(-n3nc(C)cc3C)n2)cc1 | 0.12 (inactive) | 0.656
Cc1nc(=O)c(-c2ccccc2)c(C)n1-c1ccc(O)cc1 | 1.32 (inactive) | 7.13
COc1ccc(CSC2=NCCN2)cc1Cl | 0.63 (inactive) | 3.4
CCOc1ccc(OCC)c(-c2c(=O)n(OCc3ccc(Cl)cc3)c3ccccc3[n+]2[O-])c1 | 0.53 (inactive) | 2.86
CCCCCCCC1CC(CSc2ncn[nH]2)OC1=O (stereo not given) | 0.94 (inactive) | 5.08
COc1cccc(-c2csc(NC(=O)C3CC3)n2)c1 | 0.84 (inactive) | 4.55
Cc1c(C)n(C)c2ccc(C(=O)NCc3cccs3)cc12 | 1.06 (inactive) | 5.75
N#Cc1nc(COc2ccc(F)cc2)oc1N1CCC(Cc2ccccc2)CC1 | 0.99 (inactive) | 5.35
Cc1cccc(Cc2cnc(NC(=O)CN3C(=O)/C(=C/c4ccccc4)SC3=S)s2)c1 | 1.53 | 8.25
Cc1c(NC(=O)c2ccccc2NS(=O)(=O)c2ccc(Br)cc2)c(=O)n(-c2ccccc2)n1C | 0.65 (inactive) | 3.53
CN(Cc1ccccc1)c1ncnc2c1cnn2-c1ccccc1 | 0.54 (inactive) | 2.94
O=C(NNC(=O)c1cccc(S(=O)(=O)N2CCN(c3ccccc3)CC2)c1)c1ccc(Cl)cc1 | 1.47 (inactive) | 7.95
Nn1c(SCC(=O)Nc2ccccc2F)nc2ccccc2c1=O | 1.41 (inactive) | 7.59
Cc1ccc(C(C)C)c(OCc2nc(-c3nonc3N)no2)c1 | 1.51 | 8.18
COc1ccc(NC(=O)CC2C(=O)N(c3ccc(F)cc3)C(=S)N2NC(=O)c2ccccc2)cc1 (stereo not given) | 0.79 (inactive) | 4.29
CC(CCc1ccccc1)NC(=O)CN1CCN(Cc2ccc(Cl)cc2)C1=O (stereo not given) | 1.03 (inactive) | 5.58
CCNc1oc(-c2cccc3ccccc23)nc1C#N | 0.68 (inactive) | 3.68
CCC(=O)c1ccc(N2CCOCC2)c(F)c1 | 1.32 (inactive) | 7.12
Cc1nc(NC(=S)NC(=O)c2ccccc2)sc1C(=O)N(C)C | 1.24 (inactive) | 6.71
Cc1cc(C)n(-c2nc3ccccc3nc2Nc2ccc3c(c2)OCO3)n1 | 0.75 (inactive) | 4.02
CN(C)S(=O)(=O)c1ccc(S(=O)(=O)N2CCN(CCC#N)CC2)cc1 | 0.71 (inactive) | 3.85
CC(CCc1ccccc1)NC(=O)c1nnc(Cc2ccc(Cl)cc2)o1 (stereo not given) | 1.13 (inactive) | 6.1
C=CCN(C(=O)Nc1ccc(Cl)cc1)C1CC(=O)N(c2ccc(OC)cc2)C1=O (stereo not given) | 0.9 (inactive) | 4.85

SMILES | fold increase in Dox EC50 | EC50 [µM]
COc1ccc(N2C(=O)CC(N3CCC(n4c(=O)[nH]c5ccccc54)CC3)C2=O)cc1 (stereo not given) | 1.04 (inactive) | 5.64
O=c1c(-c2nnc(SCc3ccc(Cl)cc3)o2)cccn1Cc1ccccc1 | 0.63 (inactive) | 3.4
CCn1c(COc2ccc(C)cc2)nnc1SCc1nc2ccccc2[nH]1 | 0.88 (inactive) | 4.76
N#Cc1c(-c2ccccc2)nc(SCC(=O)Nc2ccccc2F)[nH]c1=O | 1.79 | 9.66
CCCC(=O)c1ccc(N2CCOCC2)c(F)c1 | 1.07 (inactive) | 5.75
CCc1nnc(NC(=O)c2ccc(COc3ccc(C)cc3)o2)s1 | 1.33 (inactive) | 7.18
C/C(=N\NC(=O)c1ccc(Cn2cc([N+](=O)[O-])cn2)o1)c1cccc(NC(=O)c2cccnc2)c1 | 0.73 (inactive) | 3.94
CCOP(=O)(OCC)C(NC(=O)Nc1ccc(Cl)cc1)C(=O)N(CC)CC (stereo not given) | 1.33 (inactive) | 7.16
COc1ccc(/C=N\NC(=O)c2cc(O)c(O)c(O)c2)cc1CN1CCN(c2ccc(F)cc2)CC1 | 0.69 (inactive) | 3.74
CCOC(=O)c1c(-c2cccs2)csc1NC(=O)CSc1ncn[nH]1 | 0.2 (inactive) | 1.09
O=C(Nc1ncc(Cc2ccccc2Cl)s1)c1ccc(-c2cccc([N+](=O)[O-])c2)o1 | 0.81 (inactive) | 4.38
C[C@]12C=CC(=O)C=C1CC[C@H]1[C@@H]3C[C@@H](O)[C@](O)(C(=O)CO)[C@@]3(C)C[C@H](O)[C@@]12F | 1.41 (inactive) | 7.62
O=C(NCC1(c2ccccc2)CCOCC1)c1ccc(Br)o1 | 1.3 (inactive) | 7.01
O=C1C(Cc2cccc([N+](=O)[O-])c2)SC(=Nc2ccccc2)N1c1ccccc1 (stereo not given) | 0.73 (inactive) | 3.94
CC(C(=O)N1c2ccccc2CCc2ccccc21)n1nnc(-c2ccc(N(C)C)cc2)n1 (stereo not given) | 1.06 (inactive) | 5.7
Cc1ccnc(NC(=O)COc2ccc3oc4c(c3c2)CCCC4)c1 | 0.78 (inactive) | 4.21
CNc1sc(C(=O)c2cccs2)c(N)c1-c1nc2ccccc2s1 | 0.56 (inactive) | 3.03
CCCCOc1ccc(/C=C/C(=O)Nc2ccc([N+](=O)[O-])cc2C)cc1 | 1.17 (inactive) | 6.3
Cc1nc(=O)c(-c2ccccc2)c(C)n1-c1ccc(S(N)(=O)=O)cc1 | 1.53 | 8.25
O=C(NNC1=C(C(=O)C(F)(F)F)CCC1)c1ccc(Cl)cc1 | 0.87 (inactive) | 4.7
Cc1ccc(S(=O)(=O)Nc2ccc3ncccc3c2)cc1 | 1.36 (inactive) | 7.32
CCC1(C)Cc2c(sc3nnn(CC(=O)Nc4ccc(Cl)cc4)c(=O)c23)CO1 (stereo not given) | 0.2 (inactive) | 1.09
COc1ccc(C2=NN(C(=O)c3cccs3)C(c3ccc(OC)cc3)C2)cc1 (stereo not given) | 1.06 (inactive) | 5.7
COc1ccccc1-c1nc(C#N)c(N2CCc3ccccc3C2)o1 | 0.37 (inactive) | 1.99
CCOc1ccc(Cn2nnc(C(=O)NCCc3ccc(Cl)cc3)c2N)cc1 | 1.6 | 8.64

SMILES | fold increase in Dox EC50 | EC50 [µM]
CCOc1ccc(NC(=O)CN2C(=O)COc3ccc(Cl)cc32)cc1 | 1.33 (inactive) | 7.19
O=C(NCCC1=CCCCC1)C1CCN(S(=O)(=O)c2cccc3cccnc23)CC1 | 0.43 (inactive) | 2.31
O=C(Nc1nnc(C(F)(F)F)s1)C1COc2ccccc2O1 (stereo not given) | 0.85 (inactive) | 4.56
COc1ccc(N2CCN(c3nc(Cl)nc(N4CCOCC4)n3)CC2)cc1 | 0.69 (inactive) | 3.72
Cc1ccc(S(=O)(=O)N2CCC(C(=O)N[C@@H](C)C(=O)Nc3ccc4c(c3)OCO4)CC2)cc1 | 1.43 (inactive) | 7.7
O=C(Nc1ccc(C2CC2(Cl)Cl)cc1)c1ccccc1Br (stereo not given) | 1.6 | 8.66
COc1ccc(-n2c(SCC(=O)Nc3ccccc3)nc3c(c2=O)SCC3)cc1 | 0.22 (inactive) | 1.18
Clc1ccc(Cc2nnc(-c3ccccc3Br)o2)cc1 | 1.14 (inactive) | 6.15
COc1cccc(/C=N/NC(=O)C(C)n2nc(C)c([N+](=O)[O-])c2C)c1O (stereo not given) | 0.33 (inactive) | 1.77
COc1ccccc1NC(=O)c1sc2nc(-c3ccco3)ccc2c1N | 0.85 (inactive) | 4.61
Cc1ccc(C2CC(C(F)(F)F)n3nc(C(=O)NCc4c(C)nn(C)c4C)c(Cl)c3N2)cc1 (stereo not given) | 1.13 (inactive) | 6.1
COc1ccc([N+](=O)[O-])cc1NC(=O)COC(=O)/C=C/c1ccco1 | 0.99 (inactive) | 5.32
O=C(CC1SC(=O)N(Cc2ccccc2)C1=O)Nc1nccs1 (stereo not given) | 1.82 | 9.84
O=C(Cc1ccccc1F)Nc1cccc2cccnc12 | 1.68 | 9.04
N#Cc1nc(COc2ccccc2)oc1N1CCCCCC1 | 0.59 (inactive) | 3.17
Cc1ccc(NC(=O)CSc2nc(O)cc(=O)n2C)cc1 | 1.34 (inactive) | 7.25
O=C(/C=C/NNC(=O)c1ccccc1)c1ccc(Br)cc1 | 0.53 (inactive) | 2.86
O=C(/C(=C/O)N=Nc1ccccc1)c1ccncc1 | 1.4 (inactive) | 7.54
Cc1ccc(/C=C2\SC(=S)N(CCCC(=O)Nc3nccs3)C2=O)cc1 | 0.3 (inactive) | 1.64
O=C(Nc1ccn(Cc2ccccc2F)n1)c1ccc(COc2ccc(Cl)cc2Cl)o1 | 0.95 (inactive) | 5.15
c1ccc(N2CCN(c3nc(-c4cccs4)nc4ccccc34)CC2)cc1 | 0.81 (inactive) | 4.37
COc1ccc(CN=C2NC(=O)CC(C(=O)Nc3ccc(F)cc3)S2)cc1 (stereo not given) | 1.01 (inactive) | 5.47
Cc1ccc(C(=O)NC(C)c2ccc(F)cc2)cc1 (stereo not given) | 0.68 (inactive) | 3.68
CCN(CC)CCN(Cc1cc2cc(C)cc(C)c2[nH]c1=O)C(=S)NCc1ccco1 | 0.19 (inactive) | 1.03
O=C(CN1C(=O)/C(=C/c2ccccc2)SC1=S)Nc1ncc(Cc2ccccc2)s1 | 1.49 (inactive) | 8.03
